# Measurements taken from patent US12685311B2, “Environmentally friendly biocidal quaternized amine compound” (Baker Hughes Oilfield Operations LLC, priority 2023, dated 2026).
# System: microbial population (oilfield produced waters containing a range of microbes)
# Experiment: ATP quantification of oilfield produced waters after biocide treatment
# Format: cell-based
# Conditions: 400 ppm, after four hours, oilfield produced waters amended with nutrients, versus untreated control
# Protocol: Laboratory tests were performed to observe the environmentally friendly biocide of one embodiment for its ability to reduce microbial populations. The performance of the environmentally friendly biocide was further compared with that of two non-biodegradable biocidal quaternary amine compounds: alkyldimethylbenxylammonium chloride (ADBAC) and didecyldimethylammonium chloride (DDAC).
# Test bottles were prepared with oilfield produced waters amended with nutrients containing a range of microbes. These bottles were treated with 400 ppm of either di(dimethyl(alkyl)ammonium chloride) ethanoyloxy-oxo, ADBAC, or DDAC, with one test bottle left as an untreated control. After four hours, ATP quantification and serial dilution using Modified Postgate's B media were performed for the various test bottles.
row,Compound,reduction of the microbial population via ATP [%]
1,"CCCCCCCCCC[N+](C)(C)CCCCCCCCCC.[Cl-] [DDAC, didecyldimethylammonium chloride]",99.06
2,di(dimethyl(alkyl)ammonium chloride) ethanoyloxy-oxo,96.79
3,alkyldimethylbenxylammonium chloride [ADBAC],99.16
